One test has as its system pregnancy maintenance. In words: Mouse pregnancy maintenance test after s.c. administration (gestagenic activity). The format is in vivo. An excerpt:
(§1) Data for 5α-reductase-type 2-activity in genital dermal homogenates and in vivo data for gestagenic activity are presented by way of example in Tables 1 and 2 below.

Another test addresses T1, 5α-Reductase-Type 2 (Homo sapiens, UniProt P31213).
T1 construct: 5α-Reductase-Type 2-Activity in Genital Dermal Homogenates; from tissue; host or cells: genital dermal (skin) homogenate
T1 sequence (P31213 1-254): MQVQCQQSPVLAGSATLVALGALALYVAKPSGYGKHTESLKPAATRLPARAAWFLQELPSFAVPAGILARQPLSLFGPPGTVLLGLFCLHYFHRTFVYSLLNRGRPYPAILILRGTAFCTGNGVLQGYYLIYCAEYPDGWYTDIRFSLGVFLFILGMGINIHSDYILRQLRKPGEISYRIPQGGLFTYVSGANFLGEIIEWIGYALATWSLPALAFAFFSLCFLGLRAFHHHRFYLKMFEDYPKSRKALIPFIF
In words: 5α-Reductase-type 2-activity in genital dermal homogenates. The format is biochemical. As to conditions: optimized conditions at pH 5.5.
Description: as §1

In the next test the target is T2, Progesterone-receptor (Oryctolagus cuniculus, UniProt P06186).
T2 construct: from tissue; host or cells: uterus cytosol of primed rabbits
T2 sequence (P06186 1-930): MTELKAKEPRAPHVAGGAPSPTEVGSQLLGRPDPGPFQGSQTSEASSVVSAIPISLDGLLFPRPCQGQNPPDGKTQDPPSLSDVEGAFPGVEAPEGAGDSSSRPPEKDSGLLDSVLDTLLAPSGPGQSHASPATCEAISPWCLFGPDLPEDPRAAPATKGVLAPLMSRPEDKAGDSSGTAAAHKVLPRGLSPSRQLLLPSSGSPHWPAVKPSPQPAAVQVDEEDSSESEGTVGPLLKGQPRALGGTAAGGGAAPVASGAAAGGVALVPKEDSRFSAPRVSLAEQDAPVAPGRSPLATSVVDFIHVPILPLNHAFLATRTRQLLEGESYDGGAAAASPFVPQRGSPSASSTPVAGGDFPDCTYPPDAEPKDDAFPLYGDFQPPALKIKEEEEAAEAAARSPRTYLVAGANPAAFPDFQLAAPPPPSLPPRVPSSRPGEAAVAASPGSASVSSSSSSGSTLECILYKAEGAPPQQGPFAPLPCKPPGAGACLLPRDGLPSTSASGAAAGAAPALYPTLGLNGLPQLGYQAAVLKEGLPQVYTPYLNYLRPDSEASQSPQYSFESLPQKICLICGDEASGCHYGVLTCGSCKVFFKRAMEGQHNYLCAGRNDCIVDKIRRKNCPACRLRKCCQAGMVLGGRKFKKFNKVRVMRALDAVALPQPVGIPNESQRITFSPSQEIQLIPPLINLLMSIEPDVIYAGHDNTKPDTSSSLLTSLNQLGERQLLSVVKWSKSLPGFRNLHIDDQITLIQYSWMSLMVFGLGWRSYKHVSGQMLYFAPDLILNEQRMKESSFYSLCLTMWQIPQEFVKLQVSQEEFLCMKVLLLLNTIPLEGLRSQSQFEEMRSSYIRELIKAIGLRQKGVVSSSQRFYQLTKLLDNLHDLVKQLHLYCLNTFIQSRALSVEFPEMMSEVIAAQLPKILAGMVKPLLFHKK
Description: Progesterone-receptor binding to uterus-cytosol, tracer 3H-ORG 2058. As to conditions: rabbits, primed, 0-4° C., 18 hours, reference progesterone = 100%.

One may read the IC50 as the concentration that inhibits the measured activity by half. Higher therefore signals a need for much substance.

Regarding `C[C@]12CC[C@H]3[C@@H](CCC4=C(Cl)C(=O)CC[C@@H]43)[C@@H]1CC/C2=C\Cl` [Compound 1, E-17-Chloromethylene-4-chloro-estr-4-en-3-one], the Pregnancy rate achieved is 0/5 in the test on pregnancy maintenance (0.1 mg/animal/day s.c.) and 5/5 with pregnancy maintenance (1.0 mg/animal/day s.c.). Further, the half-maximal inhibitory concentration (IC50) against 5α-Reductase-Type 2 turned out to be 250 nM. Further, the “PR, Progesterone = 100% (progesterone-receptor binding)” value on Progesterone-receptor amounted to 60%.

These data come from patent US6855836B2, “17-Methylene steroids, process for their production and pharmaceutical compositions that contain these compounds” (Jenapharm GmbH & Co. KG, priority 2000, dated 2005).
